Test results reported in publication PMC4910235, “Selenophene and thiophene-core estrogen receptor ligands that inhibit motility and development of parasitic stages of Haemonchus contortus” (Parasites & Vectors, 2016).
Where two headings read alike, the source gives them in different places.

How the values were obtained:
[1] = tested on: exsheathed third-stage larvae (xL3s) of H. contortus; assay: xL3 motility assay (whole-organism screen and dose-response); type: cell-based, Haemonchus contortus; conditions: for activity at 20 µM: Haemonchus contortus, 72 h, percent of motility compared with controls, mean of triplicate ± SEM
Method: The selenophene and thiophene-core ligands (n = 74) (Additional file 1) were screened at a concentration of 20 μM on exsheathed third-stage larvae (xL3s) of H. contortus in 96-well microculture plates (cat. no. 3635; Corning 3650, Life Sciences, Corning, USA) using relevant control compounds (i.e. moxidectin and monepantel), as described previously. In brief, compounds were dissolved to a stock concentration of 10 mM in either dimethyl sulfoxide (DMSO) or methanol (Sigma-Adrich Scientific, St. Louis, USA). These ligands were then individually diluted to the final concentration of 20 μM using Luria Bertani medium (LB) supplemented with 100 IU/ml of penicillin, 100 μg/ml of streptomycin and 2.5 μg/ml of amphotericin (LB*). Compounds were dispensed (in triplicate) into the wells of a 96-well microculture plate using a multichannel pipette. In addition, the negative controls (LB*, LB* + 0.5 % solvent; six wells each), and positive controls (20 μM of monepantel; Zolvix, Novartis Animal Health, Basel, Switzerland and 20 μM of moxidectin; Cydectin, Virbac, Carros, France; triplicate wells) and xL3s (~300/well) were dispensed into wells of the plate using an automated multichannel pipette (Viaflo Assist/II, Integra Biosciences, Zizers, Switzerland). […], a video recording (5 s) was taken of each well of the 96-well microculture plate (containing xL3s) using a greyscale camera (Rolera Bolt CMOS, Qimaging Scientific, Surrey, Canada) and a motorised X-Y axis stage (BioPoint 2, Ludl Electronics Products, Hawthorne, USA). Individual videos were processed to calculate a motility index (MI) using an algorithm described previously. MIs were normalised to the negative and positive controls (to remove plate-to-plate variation) using the program Prism (v.6 GraphPad Software, USA). Z’-scores were calculated to validate the performance of the screening assay; reliable assays achieve Z’-scores of between 0.5 and 1 [28]. A compound was recorded as having an activity if it reduced xL3 motility by ≥ 70 % following incubation for 72 h. […] Compounds that reduced the motility of xL3s were also tested for their ability to inhibit the motility of L4s (same protocol as for xL3s) and/or to affect the development of xL3s to L4s. Following the measurement of L4 motility, larvae were re-incubated for 4 more days and fixed with 1 % iodine (50 μl). Then, L4 development was assessed based on the presence of a well-developed mouth/pharynx using a light microscope and expressed as a percentage of the total number of larvae examined (n = 30).
All assays (to assess xL3 motility, L4 development and L4 motility) were performed in triplicate, three times, on separate days.

[2] = 20 μM, read-out: xL3 Motility Index(%)
[3] = read-out: xL3 Motility Index(%), 20 μM, 72 h

Row | Compound | activity on xL3 motility, in words ([1]; 20 μM) | activity at 20 µM [1, 2] [%] | melting point [°C] | activity at 20 µM [1, 3] [%]
1 | COc1ccc(-c2cscc2-c2ccc(OC)cc2Cl)c(Cl)c1 [MJ-4] | Poor activity | 81.6 ± 15.7 | 121 to 125 | –
2 | Oc1ccc(-c2ccc(-c3ccc(O)cc3Cl)s2)c(Cl)c1 [MJ-29] | – | 66.6 ± 2.7 | – | –
3 | Oc1ccc(-c2ccsc2-c2ccc(O)cc2Cl)c(Cl)c1 [MJ-32] | lost all activity | 102 ± 3.6 | – | –
4 | Cc1cc(-c2cscc2-c2ccc(O)c(C)c2)ccc1O [MJ-33] | poor activity | 85.5 ± 10.6 | – | –
5 | Oc1ccc(-c2cscc2-c2ccc(O)cc2)cc1 [MJ-35] | complete loss of activity | 102 ± 1.5 | – | –
6 | COc1ccc(-c2ccc(-c3ccc(OC)cc3Cl)[se]2)c(Cl)c1 [WZY-1] | limited reduction in motility | – | – | 77.9 ± 6.6
7 | Oc1ccc(-c2ccc(-c3ccc(O)cc3F)[se]2)c(F)c1 [WZY-3] | – | – | – | 100 ± 7.7
8 | Oc1ccc(-c2cc(Br)c(-c3ccc(O)c(Cl)c3)[se]2)cc1Cl [WZY-4] | “lost” activity | – | – | 123 ± 7.8
9 | COc1c(C)cc(-c2cc(Br)c(-c3cc(C)c(OC)c(C)c3)[se]2)cc1C [WZY-5] | “lost” activity | – | – | 105 ± 18.6
